Results: the NIST ThermoML archive (doi:10.1007/s10765-010-0766-0)
Values joined by “and” are separate entries in the source; they are usually repeats but may differ in a detail not shown here. Equal values may be shown once. ± gives the expanded uncertainty stated by the source.

Test: molar heat capacity at constant volume
Settings: Liquid, Vacuum adiabatic calorimetry

FC(F)C(F)(F)OCC(F)(F)F [2,2,2-trifluoroethyl 1,1,2,2-tetrafluoroethyl ether]
Settings	molar heat capacity at constant volume
279.15 K, 5663 kPa	189.85 ± 8.6 J/K/mol
280.15 K, 6663 kPa	187.85 ± 8.4 J/K/mol
280.15 K, 6673 kPa	191.45 ± 8.6 J/K/mol
281.15 K, 7673 kPa	194.25 ± 8.8 J/K/mol
281.15 K, 7685 kPa	189.25 ± 8.6 J/K/mol
282.15 K, 8685 kPa	190.65 ± 8.6 J/K/mol
282.15 K, 8696 kPa	193.65 ± 8.8 J/K/mol
283.15 K, 9695 kPa	191.85 ± 8.6 J/K/mol
283.15 K, 9705 kPa	192.45 ± 8.6 J/K/mol
284.15 K, 10704 kPa	193.45 ± 8.8 J/K/mol
284.15 K, 10712 kPa	191.85 ± 8.6 J/K/mol
285.15 K, 11710 kPa	191.65 ± 8.6 J/K/mol
285.15 K, 11717 kPa	193.65 ± 8.8 J/K/mol
286.15 K, 12714 kPa	193.85 ± 8.8 J/K/mol
286.15 K, 12720 kPa	191.65 ± 8.6 J/K/mol
287.15 K, 13718 kPa	193.05 ± 8.6 J/K/mol
287.15 K, 13722 kPa	194.65 ± 8.8 J/K/mol
288.15 K, 14719 kPa	192.25 ± 8.6 J/K/mol
288.15 K, 14722 kPa	193.05 ± 8.6 J/K/mol
289.15 K, 15719 kPa	193.65 ± 8.8 J/K/mol
289.15 K, 15720 kPa	193.25 ± 8.6 J/K/mol
290.15 K, 16716 kPa	193.45 ± 8.8 J/K/mol
290.15 K, 16717 kPa	195.85 ± 8.8 J/K/mol
291.15 K, 17711 kPa	193.65 ± 8.8 J/K/mol
291.15 K, 17712 kPa	194.45 ± 8.8 J/K/mol
292.15 K, 18703 kPa	193.05 ± 8.6 J/K/mol
292.15 K, 18704 kPa	193.05 ± 8.6 J/K/mol
293.15 K, 19694 kPa	193.45 ± 8.8 J/K/mol and 195.45 ± 8.8 J/K/mol
294.15 K, 20683 kPa	194.85 ± 8.8 J/K/mol and 193.25 ± 8.6 J/K/mol
295.15 K, 21669 kPa	192.45 ± 8.6 J/K/mol and 193.65 ± 8.8 J/K/mol
296.15 K, 22653 kPa	195.05 ± 8.8 J/K/mol
296.15 K, 22654 kPa	195.85 ± 8.8 J/K/mol
297.15 K, 23636 kPa	193.85 ± 8.8 J/K/mol and 194.45 ± 8.8 J/K/mol
298.15 K, 24616 kPa	193.85 ± 8.8 J/K/mol
298.15 K, 24617 kPa	193.85 ± 8.8 J/K/mol
299.15 K, 25595 kPa	195.45 ± 8.8 J/K/mol
299.15 K, 25596 kPa	196.45 ± 8.8 J/K/mol
300.15 K, 26572 kPa	194.05 ± 8.8 J/K/mol
300.15 K, 26573 kPa	193.85 ± 8.8 J/K/mol
301.15 K, 6294 kPa	197.05 ± 8.8 J/K/mol
301.15 K, 27548 kPa	196.25 ± 8.8 J/K/mol and 195.85 ± 8.8 J/K/mol
302.15 K, 7147 kPa	196.45 ± 8.8 J/K/mol
302.15 K, 28521 kPa	195.05 ± 8.8 J/K/mol
302.15 K, 28522 kPa	193.65 ± 8.8 J/K/mol
303.15 K, 8010 kPa	194.05 ± 8.8 J/K/mol
303.15 K, 8015 kPa	197.65 ± 8.8 J/K/mol
303.15 K, 29493 kPa	196.65 ± 8.8 J/K/mol and 196.85 ± 8.8 J/K/mol
304.15 K, 8873 kPa	195.25 ± 8.8 J/K/mol
304.15 K, 8874 kPa	194.45 ± 8.8 J/K/mol
305.15 K, 9734 kPa	197.65 ± 8.8 J/K/mol and 197.85 ± 9 J/K/mol
306.15 K, 10592 kPa	195.45 ± 8.8 J/K/mol
306.15 K, 10594 kPa	196.05 ± 8.8 J/K/mol
307.15 K, 11449 kPa	197.25 ± 8.8 J/K/mol
307.15 K, 11452 kPa	197.05 ± 8.8 J/K/mol
308.15 K, 12303 kPa	195.25 ± 8.8 J/K/mol
308.15 K, 12308 kPa	196.25 ± 8.8 J/K/mol
309.15 K, 13157 kPa	197.45 ± 8.8 J/K/mol
309.15 K, 13163 kPa	197.45 ± 8.8 J/K/mol
310.15 K, 14009 kPa	195.65 ± 8.8 J/K/mol
310.15 K, 14016 kPa	196.45 ± 8.8 J/K/mol
311.15 K, 14859 kPa	196.45 ± 8.8 J/K/mol
311.15 K, 14867 kPa	197.05 ± 8.8 J/K/mol
312.15 K, 15708 kPa	198.05 ± 9 J/K/mol
312.15 K, 15718 kPa	197.25 ± 8.8 J/K/mol
313.15 K, 16557 kPa	196.85 ± 8.8 J/K/mol
313.15 K, 16566 kPa	197.05 ± 8.8 J/K/mol
314.15 K, 17405 kPa	198.05 ± 9 J/K/mol
314.15 K, 17414 kPa	196.85 ± 8.8 J/K/mol
315.15 K, 18252 kPa	199.05 ± 9 J/K/mol
315.15 K, 18260 kPa	196.45 ± 8.8 J/K/mol
316.15 K, 19097 kPa	197.45 ± 8.8 J/K/mol
316.15 K, 19105 kPa	197.85 ± 9 J/K/mol
317.15 K, 19942 kPa	200.86 ± 9 J/K/mol
317.15 K, 19949 kPa	198.45 ± 9 J/K/mol
318.15 K, 20785 kPa	198.25 ± 9 J/K/mol
318.15 K, 20791 kPa	198.65 ± 9 J/K/mol
319.15 K, 21626 kPa	197.85 ± 9 J/K/mol
319.15 K, 21632 kPa	197.65 ± 8.8 J/K/mol
320.15 K, 22467 kPa	200.45 ± 9 J/K/mol
320.15 K, 22471 kPa	199.25 ± 9 J/K/mol
321.15 K, 23306 kPa	199.25 ± 9 J/K/mol
321.15 K, 23311 kPa	198.45 ± 9 J/K/mol
322.15 K, 24144 kPa	199.05 ± 9 J/K/mol
322.15 K, 24148 kPa	198.05 ± 9 J/K/mol
323.15 K, 24980 kPa	199.65 ± 9 J/K/mol
323.15 K, 24983 kPa	199.05 ± 9 J/K/mol
324.15 K, 25816 kPa	200.66 ± 9 J/K/mol
324.15 K, 25819 kPa	201.06 ± 9 J/K/mol
325.15 K, 26650 kPa	199.05 ± 9 J/K/mol
325.15 K, 26653 kPa	197.05 ± 8.8 J/K/mol
326.15 K, 27482 kPa	200.86 ± 9 J/K/mol
326.15 K, 27484 kPa	199.85 ± 9 J/K/mol
327.15 K, 28313 kPa	199.65 ± 9 J/K/mol
327.15 K, 28315 kPa	198.65 ± 9 J/K/mol
328.15 K, 29144 kPa	200.66 ± 9 J/K/mol
328.15 K, 29145 kPa	201.86 ± 9 J/K/mol
329.15 K, 7678 kPa	198.25 ± 9 J/K/mol
329.15 K, 7689 kPa	201.66 ± 9 J/K/mol
329.15 K, 29973 kPa	201.66 ± 9 J/K/mol
329.15 K, 29975 kPa	200.25 ± 9 J/K/mol
330.15 K, 8385 kPa	206.66 ± 9.4 J/K/mol
330.15 K, 8394 kPa	203.66 ± 9.2 J/K/mol
331.15 K, 9091 kPa	203.86 ± 9.2 J/K/mol
331.15 K, 9099 kPa	203.26 ± 9.2 J/K/mol
332.15 K, 9796 kPa	205.26 ± 9.2 J/K/mol
332.15 K, 9803 kPa	203.46 ± 9.2 J/K/mol
333.15 K, 10500 kPa	204.86 ± 9.2 J/K/mol
333.15 K, 10506 kPa	204.26 ± 9.2 J/K/mol
334.15 K, 11204 kPa	205.86 ± 9.2 J/K/mol
334.15 K, 11209 kPa	204.66 ± 9.2 J/K/mol
335.15 K, 11908 kPa	206.26 ± 9.2 J/K/mol
335.15 K, 11912 kPa	205.06 ± 9.2 J/K/mol
336.15 K, 12610 kPa	205.26 ± 9.2 J/K/mol
336.15 K, 12614 kPa	204.26 ± 9.2 J/K/mol
337.15 K, 13313 kPa	208.46 ± 9.4 J/K/mol
337.15 K, 13315 kPa	206.66 ± 9.4 J/K/mol
338.15 K, 14014 kPa	204.26 ± 9.2 J/K/mol
338.15 K, 14016 kPa	204.66 ± 9.2 J/K/mol
339.15 K, 14714 kPa	208.46 ± 9.4 J/K/mol
339.15 K, 14716 kPa	206.06 ± 9.2 J/K/mol
340.15 K, 15413 kPa	207.06 ± 9.4 J/K/mol
340.15 K, 15416 kPa	206.86 ± 9.4 J/K/mol
341.15 K, 16111 kPa	207.06 ± 9.4 J/K/mol
341.15 K, 16114 kPa	208.06 ± 9.4 J/K/mol
